Test results as given in patent US20220249394A1 (priority 2019, published 2022).

Molecular target: protease K-resistance prion protein (PrP^Sc) in ScN2a cells (Mus musculus, UniProt P04925)
Format: cell-based
Conditions: 6 mM HFIP for 24 hours, protease K 10 μg/ml 37° C. 30 minutes, Western blotting, FIG. 2 #5 to #8

OC(C(F)(F)F)C(F)(F)F [HFIP, 1,1,1,3,3,3-hexafluoro-2-propanol]
resistance of prion protein to protease K: resistance to protease K was reduced
